Reference: patent publication US20250346600A1, “TRICYCLIC DERIVATIVES AND RELATED USES” (MOMA Therapeutics, Inc., priority 2023, published 2025)

Key:
HT29 cells = test: HT29 (MSS) 7 day viability, CellTiter Glo; type: cell-based; details: Homo sapiens, HT-29, 168 h, 7 days, read-out: HT29 (MSS) Viability 7 Day CTGAbs AC50
In short: (§1)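 For each line, compound dilution series (3-fold, 10 points) met a defined seeding density—HCT116 50, HT29 500 cells/well—followed by 7 days at 37 °C. Luminescent ATP signal, background-corrected with no-cell wells, gave four-parameter logistic IC50s.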

[1] = molecular target: T1, Full length WRN protein (aa 2-1432) (Homo sapiens (Human), UniProt Q14191); test: WRN ATPase ADP-Glo biochemical assay, Assay Format A (10 μM ATP); details: 0.25 nM WRN, 100 nM C6.18 ssDNA, 30 min preincubation, read-out: ATPase ADPGlo AC50 (uM)- Assay Format A
T1 sequence (Q14191 2-1432): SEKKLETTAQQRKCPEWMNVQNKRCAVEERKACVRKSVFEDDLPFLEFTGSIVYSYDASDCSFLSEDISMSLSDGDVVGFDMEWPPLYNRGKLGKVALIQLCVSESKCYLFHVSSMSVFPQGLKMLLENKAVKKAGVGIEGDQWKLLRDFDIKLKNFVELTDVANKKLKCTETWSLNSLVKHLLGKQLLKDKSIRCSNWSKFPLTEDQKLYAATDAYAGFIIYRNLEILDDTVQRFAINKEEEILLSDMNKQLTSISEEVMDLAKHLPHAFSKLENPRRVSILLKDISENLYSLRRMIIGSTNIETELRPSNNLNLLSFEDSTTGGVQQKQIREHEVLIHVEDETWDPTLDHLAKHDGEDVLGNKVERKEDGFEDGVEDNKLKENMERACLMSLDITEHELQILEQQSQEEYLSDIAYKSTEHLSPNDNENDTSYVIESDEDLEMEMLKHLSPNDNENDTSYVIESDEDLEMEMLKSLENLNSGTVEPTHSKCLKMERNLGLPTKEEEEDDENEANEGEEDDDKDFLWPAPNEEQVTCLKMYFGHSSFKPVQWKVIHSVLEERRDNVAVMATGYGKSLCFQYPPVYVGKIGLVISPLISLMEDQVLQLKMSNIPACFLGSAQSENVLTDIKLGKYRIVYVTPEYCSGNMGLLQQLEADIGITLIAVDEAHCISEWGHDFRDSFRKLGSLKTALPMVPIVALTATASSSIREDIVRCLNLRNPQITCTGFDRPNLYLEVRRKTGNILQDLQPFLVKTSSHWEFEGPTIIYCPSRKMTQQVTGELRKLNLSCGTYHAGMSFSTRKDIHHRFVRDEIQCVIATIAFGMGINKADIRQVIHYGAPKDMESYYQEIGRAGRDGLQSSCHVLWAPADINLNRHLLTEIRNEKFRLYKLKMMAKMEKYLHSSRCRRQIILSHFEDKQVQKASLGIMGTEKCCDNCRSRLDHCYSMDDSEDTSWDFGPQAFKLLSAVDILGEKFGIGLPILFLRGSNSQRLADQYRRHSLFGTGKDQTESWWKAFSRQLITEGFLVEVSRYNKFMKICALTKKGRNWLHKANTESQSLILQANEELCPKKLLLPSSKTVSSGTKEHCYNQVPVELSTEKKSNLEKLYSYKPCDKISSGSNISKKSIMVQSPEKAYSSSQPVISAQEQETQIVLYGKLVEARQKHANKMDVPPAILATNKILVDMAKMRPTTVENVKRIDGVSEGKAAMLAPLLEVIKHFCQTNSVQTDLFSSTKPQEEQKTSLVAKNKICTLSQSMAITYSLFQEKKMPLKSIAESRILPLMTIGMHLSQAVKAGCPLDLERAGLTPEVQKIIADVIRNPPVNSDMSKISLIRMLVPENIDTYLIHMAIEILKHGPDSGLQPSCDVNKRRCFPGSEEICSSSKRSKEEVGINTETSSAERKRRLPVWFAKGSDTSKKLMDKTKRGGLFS
In short: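 ADP-Glo luminescence measured hydrolysis of ATP by purified, baculovirus-expressed N-terminally tagged full-length WRN. Enzyme (0.5 nM) was preincubated 30 min with compound, then 200 nM ssDNA C6.18 plus 20 μM ATP were added (pre-mix levels) for 30 min at RT. IC50s come from four-parameter fits, geometric mean of at least two trials.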

[2] = molecular target: T1, Full length WRN protein (aa 2-1432); test: WRN ATPase ADP-Glo biochemical assay, Assay Format B (100 μM ATP); details: 0.25 nM WRN, 100 nM C6.18 ssDNA, 60 min preincubation, read-out: ATPase ADPGlo AC50 (uM)- Assay Format B
HCT116 cells = test: HCT116 (MSI) 7 day viability, CellTiter Glo; type: cell-based; details: Homo sapiens, HCT-116, 168 h, 7 days, read-out: HCT116 (MSI) Viability 7 Day Abs AC50
In short: as §1

Compound	AC50 (HT29 cells)	AC50 [1]	AC50 [2]	AC50 (HCT116 cells)
C=CC(=O)N1CCc2nn(-c3ccc(C(C)C)cc3)c3c2C(C1)N(C(=O)c1ccc(Br)c(C(C)(C)O)c1)CC3 (stereo not drawn) [Compound 102, 1-(5-(4-bromo-3-(2-hydroxypropan-2-yl)benzoyl)-2-(4-isopropylphenyl)-2,3,4,5,5a,6,8,9-octahydro-7H-1,2,5,7-tetraazabenzo[cd]azulen-7-yl)prop-2-en-1-one]	> 3000 nM	0.005 to 0.015 µM	> 0.055 µM	500 to 1000 nM
C=CC(=O)N1CCOc2nn(-c3ccc(C4CC4)cc3C)c3c2C(C1)N(C(=O)c1ccc(Br)c2[nH]cnc12)CC3 (stereo not drawn) [Compound 103, 1-(5-(7-bromo-1H-benzo[d]imidazole-4-carbonyl)-2-(4-cyclopropyl-2-methylphenyl)-2,3,4,5,5a,6,8,9-octahydro-7H-10-oxa-1,2,5,7-tetraazacycloocta[cd]inden-7-yl)prop-2-en-1-one]	> 3000 nM	< 0.0015 µM	0.015 to 0.055 µM	250 to 500 nM
C=CC(=O)N1CCc2nn(-c3ccc(C(C)C)cc3)c3c2C(C1)N(C(=O)c1ccc(Br)c(NCC(F)(F)F)c1)CC3 (stereo not drawn) [Compound 104, 1-(5-(4-bromo-3-((2,2,2-trifluoroethyl)amino)benzoyl)-2-(4-isopropylphenyl)-2,3,4,5,5a,6,8,9-octahydro-7H-1,2,5,7-tetraazabenzo[cd]azulen-7-yl)prop-2-en-1-one]	> 3000 nM	0.005 to 0.015 µM	> 0.055 µM	1 to 100 nM
C=CC(=O)N1CCc2nn(-c3ccc(C(C)C)cc3)c3c2C(C1)N(C(=O)c1ccc(Br)c(-c2cc[nH]n2)c1)CC3 (stereo not drawn) [Compound 106, 1-(5-(4-bromo-3-(1H-pyrazol-3-yl)benzoyl)-2-(4-isopropylphenyl)-2,3,4,5,5a,6,8,9-octahydro-7H-1,2,5,7-tetraazabenzo[cd]azulen-7-yl)prop-2-en-1-one]	> 3000 nM	0.0015 to 0.005 µM	> 0.055 µM	250 to 500 nM
C=CC(=O)N1CCc2nn(-c3ccc(C4CCC4)cc3O)c3c2C(C1)N(C(=O)c1ccc(OC(F)(F)F)cc1)CC3 (stereo not drawn) [Compound 107, 1-(2-(4-cyclobutyl-2-hydroxyphenyl)-5-(4-(trifluoromethoxy)benzoyl)-2,3,4,5,5a,6,8,9-octahydro-7H-1,2,5,7-tetraazabenzo[cd]azulen-7-yl)prop-2-en-1-one]	> 3000 nM	0.005 to 0.015 µM	0.015 to 0.055 µM	100 to 250 nM
C=CC(=O)N1CCc2nn(-c3ccc(C4CC4)cc3)c3c2C(C1)N(C(=O)c1ccc(C(F)(F)F)nc1O)CC3 (stereo not drawn) [Compound 109, 1-(2-(4-cyclopropylphenyl)-5-(2-hydroxy-6-(trifluoromethyl)nicotinoyl)-2,3,4,5,5a,6,8,9-octahydro-7H-1,2,5,7-tetraazabenzo[cd]azulen-7-yl)prop-2-en-1-one]	> 3000 nM	0.005 to 0.015 µM	0.015 to 0.055 µM	250 to 500 nM
C=CC(=O)N1CCc2nn(-c3ccc(C4CC4)cc3)c3c2C(C1)N(C(=O)c1cnc2c(C)nn(C)c2c1)CC3 (stereo not drawn) [Compound 110, 1-(2-(4-cyclopropylphenyl)-5-(1,3-dimethyl-1H-pyrazolo[4,3-b]pyridine-6-carbonyl)-2,3,4,5,5a,6,8,9-octahydro-7H-1,2,5,7-tetraazabenzo[cd]azulen-7-yl)prop-2-en-1-one]	> 3000 nM	0.005 to 0.015 µM	> 0.055 µM	100 to 250 nM
C=CC(=O)N1CCc2nn(-c3ccc(C4CC4)cc3)c3c2C(C1)N(C(=O)c1cnc(C(F)(F)F)c(C#N)c1)CC3 (stereo not drawn) [Compound 112, 5-(7-acryloyl-2-(4-cyclopropylphenyl)-3,4,5,5a,6,7,8,9-octahydro-2H-1,2,5,7-tetraazabenzo[cd]azulene-5-carbonyl)-2-(trifluoromethyl)nicotino nitrile]	> 3000 nM	0.005 to 0.015 µM	> 0.055 µM	100 to 250 nM
C=CC(=O)N1CCc2nn(-c3ccc(C4CC4)cc3)c3c2C(C1)N(C(=O)c1ccc(Br)nc1C)CC3 (stereo not drawn) [Compound 114, 1-(5-(6-bromo-2-methylnicotinoyl)-2-(4-cyclopropylphenyl)-2,3,4,5,5a,6,8,9-octahydro-7H-1,2,5,7-tetraazabenzo[cd]azulen-7-yl)prop-2-en-1-one]	> 3000 nM	0.005 to 0.015 µM	> 0.055 µM	250 to 500 nM
C=CC(=O)N1CCc2nn(-c3ccc(C4CC4)cc3)c3c2C(C1)N(C(=O)c1ccc(Br)nc1N)CC3 (stereo not drawn) [Compound 117, 1-(5-(2-amino-6-bromonicotinoyl)-2-(4-cyclopropylphenyl)-2,3,4,5,5a,6,8,9-octahydro-7H-1,2,5,7-tetraazabenzo[cd]azulen-7-yl)prop-2-en-1-one]	> 3000 nM	0.0015 to 0.005 µM	0.005 to 0.015 µM	1 to 100 nM
C=CC(=O)N1CCc2nn(-c3ccc(C4CC4)cc3)c3c2C(C1)N(C(=O)c1cnc(C(F)(F)F)cc1N)CC3 (stereo not drawn) [Compound 128, 1-(5-(4-amino-6-(trifluoromethyl)nicotinoyl)-2-(4-cyclopropylphenyl)-2,3,4,5,5a,6,8,9-octahydro-7H-1,2,5,7-tetraazabenzo[cd]azulen-7-yl)prop-2-en-1-one]	> 3000 nM	< 0.0015 µM	0.005 to 0.015 µM	1 to 100 nM
C=CC(=O)N1CC(OC2CC2)c2nn(-c3ccc(C4CCC4)cc3)c3c2C(C1)N(C(=O)c1cnc(C(F)(F)F)cc1N)CC3 (stereo not drawn) [Compound 129, 1-(5-(4-amino-6-(trifluoromethyl)nicotinoyl)-2-(4-cyclobutylphenyl)-9-cyclopropoxy-2,3,4,5,5a,6,8,9-octahydro-7H-1,2,5,7-tetraazabenzo[cd]azulen-7-yl)prop-2-en-1-one]	1000 to 3000 nM	< 0.0015 µM	0.0015 to 0.005 µM	1 to 100 nM
C=CC(=O)N1CC(C)c2nn(-c3ccc(C4CCC4)cc3O)c3c2C(C1)N(C(=O)c1cnc(C(F)(F)F)cc1N)CC3 (stereo not drawn) [Compound 130, 1-(5-(4-amino-6-(trifluoromethyl)nicotinoyl)-2-(4-cyclobutyl-2-hydroxyphenyl)-9-methyl-2,3,4,5,5a,6,8,9-octahydro-7H-1,2,5,7-tetraazabenzo[cd]azulen-7-yl)prop-2-en-1-one]	> 3000 nM	< 0.0015 µM	0.005 to 0.015 µM	1 to 100 nM
C=CC(=O)N1CCc2nn(-c3ccc(C4CC4)cc3)c3c2C(C1)N(C(=O)c1ccc(Br)c2[nH]nc(N)c12)CC3 (stereo not drawn) [Compound 131, 1-(5-(3-amino-7-bromo-1H-indazole-4-carbonyl)-2-(4-cyclopropylphenyl)-2,3,4,5,5a,6,8,9-octahydro-7H-1,2,5,7-tetraazabenzo[cd]azulen-7-yl)prop-2-en-1-one]	> 3000 nM	< 0.0015 µM	0.005 to 0.015 µM	1 to 100 nM
C=CC(=O)N1CCc2nn(-c3ccc(C45CC(C4)C5)cc3)c3c2C(C1)N(C(=O)c1cnc(C(F)(F)F)cc1N)CC3 (stereo not drawn) [Compound 133, 1-(5-(4-amino-6-(trifluoromethyl)nicotinoyl)-2-(4-(bicyclo[1.1.1]pentan-1-yl)phenyl)-2,3,4,5,5a,6,8,9-octahydro-7H-1,2,5,7-tetraazabenzo[cd]azulen-7-yl)prop-2-en-1-one]	> 3000 nM	< 0.0015 µM	0.005 to 0.015 µM	1 to 100 nM
